# According to PubChem BioAssay (NCI):
#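 Assay format: 96-well plates, 48-hour exposure. TGI: total growth inhibition.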
# Assays:
# Assay in all cases: NCI anticancer screen, dose series, 48 h
# SNB-19 CNS = tested on: SNB-19 CNS
# MDA-N = tested on: MDA-N
# NCI-H226 lung = tested on: NCI-H226 lung
# SF-539 CNS = tested on: SF-539 CNS
# RPMI-8226 leukemia = tested on: RPMI-8226 leukemia
# SR leukemia = tested on: SR leukemia
# OVCAR-3 ovarian = tested on: OVCAR-3 ovarian
# HL-60(TB) leukemia = tested on: HL-60(TB) leukemia
# M14 melanoma = tested on: M14 melanoma
# TK-10 renal = tested on: TK-10 renal
# UACC-257 melanoma = tested on: UACC-257 melanoma
# CCRF-CEM leukemia = tested on: CCRF-CEM leukemia
# MALME-3M melanoma = tested on: MALME-3M melanoma
# HS 578T breast = tested on: HS 578T breast
# ACHN renal = tested on: ACHN renal
# 786-0 renal = tested on: 786-0 renal
# HCT-116 colon = tested on: HCT-116 colon
# A549 NSCLC = tested on: A549 NSCLC
# MDA-MB-435 = tested on: MDA-MB-435
# UACC-62 melanoma = tested on: UACC-62 melanoma
# HCT-15 colon = tested on: HCT-15 colon
# MDA-MB-231 breast = tested on: MDA-MB-231 breast
# NCI-H522 lung = tested on: NCI-H522 lung
# NCI-H460 lung = tested on: NCI-H460 lung
# HCC-2998 colon = tested on: HCC-2998 colon
# MOLT-4 leukemia = tested on: MOLT-4 leukemia
# SNB-75 CNS = tested on: SNB-75 CNS
# SW-620 colon = tested on: SW-620 colon
# T-47D breast = tested on: T-47D breast
# MCF7 breast = tested on: MCF7 breast
# PC-3 prostate = tested on: PC-3 prostate
# IGROV1 ovarian = tested on: IGROV1 ovarian
# OVCAR-4 ovarian = tested on: OVCAR-4 ovarian
# COLO 205 colon = tested on: COLO 205 colon
# A498 renal = tested on: A498 renal
# LOX IMVI melanoma = tested on: LOX IMVI melanoma
# OVCAR-8 ovarian = tested on: OVCAR-8 ovarian
# SN12C renal = tested on: SN12C renal
# SF-295 CNS = tested on: SF-295 CNS
# K-562 leukemia = tested on: K-562 leukemia
# RXF 393 renal = tested on: RXF 393 renal
# HOP-92 NSCLC = tested on: HOP-92 NSCLC
# SF-268 CNS = tested on: SF-268 CNS
# SK-MEL-28 melanoma = tested on: SK-MEL-28 melanoma
# KM12 colon = tested on: KM12 colon
# EKVX NSCLC = tested on: EKVX NSCLC
# CAKI-1 renal = tested on: CAKI-1 renal
# DU-145 prostate = tested on: DU-145 prostate
# U251 CNS = tested on: U251 CNS
# BT-549 breast = tested on: BT-549 breast
# SK-MEL-2 melanoma = tested on: SK-MEL-2 melanoma
# NCI/ADR-RES ovarian = tested on: NCI/ADR-RES ovarian
# OVCAR-5 ovarian = tested on: OVCAR-5 ovarian
# UO-31 renal = tested on: UO-31 renal
# SK-MEL-5 melanoma = tested on: SK-MEL-5 melanoma
# NCI-H23 lung = tested on: NCI-H23 lung
# SK-OV-3 ovarian = tested on: SK-OV-3 ovarian
# HOP-62 NSCLC = tested on: HOP-62 NSCLC
# HT29 colon = tested on: HT29 colon
smiles,measurement,setting,value
Cc1c(C)c2c(c(N)c1C#N)C(=O)N(CCN1CCNCC1)C2=O,TGI,SNB-19 CNS,> 100 µM
same,TGI,MDA-N,> 100 µM
same,TGI,NCI-H226 lung,> 100 µM
same,TGI,SF-539 CNS,> 100 µM
same,TGI,RPMI-8226 leukemia,> 100 µM
same,TGI,SR leukemia,95 µM
same,TGI,OVCAR-3 ovarian,> 100 µM
same,TGI,HL-60(TB) leukemia,> 100 µM
same,TGI,M14 melanoma,> 100 µM
same,TGI,TK-10 renal,> 100 µM
same,TGI,UACC-257 melanoma,> 100 µM
same,TGI,CCRF-CEM leukemia,> 100 µM
same,TGI,MALME-3M melanoma,73.1 µM
same,TGI,HS 578T breast,> 100 µM
same,TGI,ACHN renal,> 100 µM
same,TGI,786-0 renal,> 100 µM
same,TGI,HCT-116 colon,52.2 µM
same,TGI,A549 NSCLC,> 100 µM
same,TGI,MDA-MB-435,> 100 µM
same,TGI,UACC-62 melanoma,62.4 µM
same,TGI,HCT-15 colon,> 100 µM
same,TGI,MDA-MB-231 breast,> 100 µM
same,TGI,NCI-H522 lung,97.3 µM
same,TGI,NCI-H460 lung,> 100 µM
same,TGI,HCC-2998 colon,> 100 µM
same,TGI,MOLT-4 leukemia,> 100 µM
same,TGI,SNB-75 CNS,77 µM
same,TGI,SW-620 colon,> 100 µM
same,TGI,T-47D breast,> 100 µM
same,TGI,MCF7 breast,> 100 µM
same,TGI,PC-3 prostate,> 100 µM
same,TGI,IGROV1 ovarian,> 100 µM
same,TGI,OVCAR-4 ovarian,> 100 µM
same,TGI,COLO 205 colon,78.7 µM
same,TGI,A498 renal,72.3 µM
same,TGI,LOX IMVI melanoma,47.9 µM
same,TGI,OVCAR-8 ovarian,> 100 µM
same,TGI,SN12C renal,> 100 µM
same,TGI,SF-295 CNS,> 100 µM
same,TGI,K-562 leukemia,> 100 µM
same,TGI,RXF 393 renal,70.6 µM
same,TGI,HOP-92 NSCLC,> 100 µM
same,TGI,SF-268 CNS,> 100 µM
same,TGI,SK-MEL-28 melanoma,> 100 µM
same,TGI,KM12 colon,> 100 µM
same,TGI,EKVX NSCLC,> 100 µM
same,TGI,CAKI-1 renal,> 100 µM
same,TGI,DU-145 prostate,> 100 µM
same,TGI,U251 CNS,> 100 µM
same,TGI,BT-549 breast,> 100 µM
same,TGI,SK-MEL-2 melanoma,> 100 µM
same,TGI,NCI/ADR-RES ovarian,> 100 µM
same,TGI,OVCAR-5 ovarian,81.1 µM
same,TGI,UO-31 renal,90.9 µM
Cc1ccsc1/C=N/Nc1nncc2ccccc12,TGI,SNB-19 CNS,> 100 µM
same,TGI,MDA-N,> 100 µM
same,TGI,NCI-H226 lung,> 100 µM
same,TGI,RPMI-8226 leukemia,> 100 µM
same,TGI,OVCAR-3 ovarian,> 100 µM
same,TGI,M14 melanoma,> 100 µM
same,TGI,TK-10 renal,> 100 µM
same,TGI,UACC-257 melanoma,> 100 µM
same,TGI,CCRF-CEM leukemia,> 100 µM
same,TGI,HS 578T breast,> 100 µM
same,TGI,ACHN renal,> 100 µM
same,TGI,786-0 renal,> 100 µM
same,TGI,HCT-116 colon,> 100 µM
same,TGI,A549 NSCLC,> 100 µM
same,TGI,MDA-MB-435,> 100 µM
same,TGI,UACC-62 melanoma,> 100 µM
same,TGI,HCT-15 colon,> 100 µM
same,TGI,MDA-MB-231 breast,> 100 µM
same,TGI,HCC-2998 colon,> 100 µM
same,TGI,MOLT-4 leukemia,> 100 µM
same,TGI,SNB-75 CNS,> 100 µM
same,TGI,SK-MEL-5 melanoma,> 100 µM
same,TGI,SW-620 colon,> 100 µM
same,TGI,T-47D breast,> 100 µM
same,TGI,NCI-H23 lung,> 100 µM
same,TGI,MCF7 breast,> 100 µM
same,TGI,PC-3 prostate,> 100 µM
same,TGI,IGROV1 ovarian,> 100 µM
same,TGI,OVCAR-4 ovarian,> 100 µM
same,TGI,COLO 205 colon,> 100 µM
same,TGI,A498 renal,> 100 µM
same,TGI,LOX IMVI melanoma,> 100 µM
same,TGI,OVCAR-8 ovarian,> 100 µM
same,TGI,SN12C renal,> 100 µM
same,TGI,SF-295 CNS,> 100 µM
same,TGI,SK-OV-3 ovarian,> 100 µM
same,TGI,K-562 leukemia,> 100 µM
same,TGI,HOP-62 NSCLC,> 100 µM
same,TGI,RXF 393 renal,> 100 µM
same,TGI,HOP-92 NSCLC,> 100 µM
same,TGI,SF-268 CNS,> 100 µM
same,TGI,SK-MEL-28 melanoma,> 100 µM
same,TGI,KM12 colon,> 100 µM
same,TGI,EKVX NSCLC,> 100 µM
same,TGI,HT29 colon,> 100 µM
same,TGI,CAKI-1 renal,> 100 µM
same,TGI,DU-145 prostate,> 100 µM
same,TGI,U251 CNS,> 100 µM
same,TGI,BT-549 breast,> 100 µM
same,TGI,SK-MEL-2 melanoma,92 µM
same,TGI,NCI/ADR-RES ovarian,> 100 µM
same,TGI,OVCAR-5 ovarian,> 100 µM
same,TGI,UO-31 renal,> 100 µM
